One block for each compound: values may come before it.
What was measured:
[1] = tested on: Swiss albino mice subjected to whole-body γ irradiation; test: Survival of mice subjected to whole-body γ irradiation (LD50/30); type: in vivo
Description: Swiss albino mice (male, 9-10 weeks old, 30-32 g) were obtained from Charles River Laboratories (Wilmington, MA). This strain is among the most common used in radiation studies (Williams 2010). Mice were fed with a nutritionally complete diet (standard diet, SD) before irradiation. This was A03 from Panlab (Barcelona, Spain), which has 3,200 kcal/kg and the following nutritional composition: crude protein, 23.5%; crude fat, 4.3%; crude fiber, 3.7%; and carbohydrates, 51.1%; vitamins and minerals were provided as in the NIH-7 open formula for rat and mouse. This diet meets the dietary allowances recommended for adult mice by the American Institute of Nutrition. The animals were fed ad libitum and kept in individual metabolic cages, in which body weight and food ingestion were monitored daily. The animal room was maintained at 22° C. on a 12 h light/12 h dark cycle. Ad libitum intake of drinking water was also allowed. Care of irradiated mice followed the recommendation of the Robert Wood Johnson Medical School (Piscataway, NJ) for mouse total body irradiation (policy 15), which includes: a) use of antibiotics in the drinking water (134 mg ampicillin/kg/day, 40 mg baytril/kg/day, and 220/42 mg sulfamethoxazole/trimethoprim/kg/day), b) making drinking water readily available, c) Napa nectar Systems Engineering Lab Group Inc., Napa, CA) provided on the bottom of the cage during the first 14 days and replaced daily, d) provision of softened food served in a small Petri dish on the cage floor, e) completely sterile environment (cage, food, and water) to avoid potential immunosuppression-associated infections. A free-standing wheel inside the cage was also included to facilitate the physical exercise of the animals. All experiments were started at 10.00 h to minimize possible circadian variations. Procedures involving animals were in compliance with international laws and policies (EEC Directive 86/609, OJ L 358. 1, Dec. 12, 1987; and NIH Guide for the Care and Use of Laboratory Animals, NIH Publ. No. 85-23, 1985). Mice were subjected to g-radiation (^137Cs) (total body irradiation, TBI) in a BIOBEAM 8000 (Gamma-Service Medical GmbH, Leipzig, Germany). Single fraction radiotherapy, at total doses ranging from approx. 5.0 to 10.0 Gy, was administered at a rate of approx. […]. The irradiation distance from the source was limited to 12 cm. Radiation dosimetry was controlled using alanine dosimeters from Bruker (Billerica, MA) with dosimetry variation of +/−0.09 Gy. […] NR (nicotinamide riboside, 3-aminocarbonyl-1-b-D-ribofuranosyl-pyridinium, Elysium Health, Inc., New York, NY) was dissolved in vaccination-grade water, and the pH of the solution neutralized (pH 7.0) before oral administration (185 mg/kg×day, Obrador 2020). FSL-1 (InvivoGen, San Diego, CA) was resuspended in sterile vaccination-grade water, and administered IP (0.25 mg/kg×day, the volume administered was of […] depending on the weight of the mouse, as recommended by Kurkjian 2017). Pharmaceutical grade amifostine (Ethyol) was obtained from Cumberland Pharmaceuticals (Nashville, TN) as 500 mg sterile lyophilized powder vial, and reconstituted with physiological saline prior to use.
First, the effects of γ radiation and mice survival were studied. […] Mice received whole-body γ radiation (one single dose; ^137Cs, 0.5-0.6 Gy/min; Biobeam 8000, GSM GmbH). One Gy=absorption of 1 J of energy/kg of matter.
Next, the thirty-days survival of mice treated with γ rays (LD50/30) and pterostilbene (PT) was analysed (FIG. 1B).

[2] = tested on: cellular NAD+ content; test: NAD+ content of cells isolated from mice; type: in vivo; conditions: FIG. 14a
Procedure: (§1) FIG. 14. […] Cells were isolated 72 h after irradiation. […] Mice were treated and cells isolated as above (a).
Isolated cells were homogenized in 0.1M phosphate buffer (pH 7.2) at 4° C. γ-glu tamylcysteine ligase (GCL), glutathione peroxidase (GPX), catalase (CAT), and superoxide dismutase 1 and 2 (SOD1 and SOD2) activities were measured as previously described in detail (Benlloch 2016). Protein concentration was determined with the Pierce BCA protein assay (Thermo Fisher Scientific). Glutathione ([…]-L-glutamyl-L-cystenyl-glycine, GSH) was determined by LC/MS as previously reported (Obrador 2014). Cell processing was performed according to published methodology, where rapid N-ethylmaleimide derivatization was used to prevent GSH auto-oxidation (Asensi 1994). NAD^+ and NADH in isolated cells were quantitated using assay kits from MyBiosource (San Diego, CA).
Presumably, the effect of the polyphenols is an antioxidant-related mechanism, whereas the NR-induced increase in NAD+ directly promotes the DNA repair activity.

[3] = target: nicotinamide phosphoribosyltransferase (NAMPT) (Mus musculus, UniProt Q99KQ4); conditions: mice treated with FK866 for 6 days, FIG. 14b
Procedure: FK866 was administered in vivo (15 mg/kg, twice daily by intraperitoneal injection, during 6 days and starting 3 days prior to irradiation, see FIG. 11a), and was also present in the cell cultures (100 nM). Cells were isolated 72 h after irradiation. […] Mice were treated with the inhibitor for 6 days as above (a).
Formation of 14C-nicotinamide mononucleotide (NMN) from 14C-nicotinamide (NAM, (GE Healthcare Life Sciences, Björkgatan, Uppsala, Sweden) can be measured by precipitation of 14C-NMN in acetone on filter paper and scintillation counting. Cell dispersion was carried out by trypsinization (in Mg^2+- and Ca2^+-free PBS supplemented with 0.2% trypsin, 0.5 mM EDTA, and 5 mM glucose for 3 min at 37° C.). Cell pellets were obtained by centrifugation (800 g×5 min at 4° C.), and then 100 μl of phosphate buffer [0.01 M Na2HPO4/NaH2PO4 buffer, pH 7.4, containing protease inhibitor (Sigma-Aldrich)] was added to each cell sample. Samples were further processed, and NAMPT activity was determined on 30 μg of protein as described previously (Elliott G C, et al. 1980, and Schuster S, et al. 2014). Radioactivity (disintegrations/min) was measured using a Tri-Carb® Liquid Scintillation Counter from Perkin-Elmer. Background disintegrations/min from scintillation fluid was subtracted from each measurement.

[4] = PT, SIL and NAD+ levels in circulating blood; conditions: treated and irradiated mice, FIG. 10B
Procedure: Briefly, samples were analyzed through HPLC (Ultimate 3000, Thermo Fisher Scientific) and MS/MS (Waters TQ detector triple quadrupole) systems on a Hypurity™ C18 column (50×4.6 mm) using an injection volume of 5 μL. The mobile phases consisted of water (A) and acetonitrile (B). […] MS/MS data acquisition was performed under negative electrospray ionization mode. […] The fragmentary voltage was 150 V, and the collision energy 15 eV. Tissue sample preparation was as described for determination of PTER levels (above).
Whole-blood samples (0.5 ml) were collected in sodium citrate tubes at 4° C. Then a whole-blood aliquot of 0.1 ml was transferred to a cryovial containing 0.9 ml of 0.5 M ice-cold perchloric acid to lyse all blood cells. Samples were centrifuged at 10,000 g×10 min (4° C.). Supernatants were stored at −80° C. until analyzed.

[5] = tested on: hematopoietic colony forming cells CFU-GM and CFU-GEMM; test: Colony forming cells in the bone marrow; type: in vivo; conditions: femurs of γ-irradiated mice, 7 days after irradiation, FIG. 14d
Procedure: as §1
Mice were sacrificed under aseptic conditions and femurs were isolated on day 7 post irradiation. Bone marrow cells were flushed from the isolated femurs (see above) with phosphate-buffered saline (4° C.) supplemented with 5% fetal bovine serum. Single-cell suspension was passed through 100 μm nylon mesh strainer to remove debris and clumps. Cells were washed twice with phosphate-buffered saline (4° C.) and counted using a hemocytometer. Cells were plated ex vivo at a concentration of 5×10^4 cells per 35 mm cell culture dish in Methocult GF M3434 (Stemcell Technologies, Vancouver, Canada) growth medium according to the manufacturer's protocol and incubated for 14 days at 37° C., 5% CO2, 95% humidity. Colonies were visualized on day 14 of culture using light microscopy (AxioCam MRc5, Zeiss, Oberkochen, Germany) under a polarised light and scanned in a 60 mm gridded scoring Petri dish (Stemcell Technologies). Hematopoietic colony forming cells CFU-GM and CFU-GEMM were quantified.

[6] = tested on: cellular DNA damage; test: Comet assay of DNA damage in cells isolated from γ-irradiated mice; type: in vivo; conditions: FIG. 14c
Procedure: as §1
This assay is a single cell gel electrophoresis assay for simple evaluation of cellular DNA damage. We used the assay kit from Abcam (ab238544) (Cambridge, UK). The manufacturer's instructions were followed step by step.

[7] = 60 days after γ radiation (LD50/30), compounds administered orally, FIG. 2C
[8] = 6 days after γ radiation (LD50/30), compounds administered orally, FIG. 2A
[9] = 60 days post γ irradiation (LD50/30), NR oral 185 mg/kg×day for 30 days after irradiation, FSL-1 IP 0.25 mg/kg once 24 h after, FIG. 9

Chain of nicotinamide phosphoribosyltransferase (NAMPT) (Q99KQ4 whole entry): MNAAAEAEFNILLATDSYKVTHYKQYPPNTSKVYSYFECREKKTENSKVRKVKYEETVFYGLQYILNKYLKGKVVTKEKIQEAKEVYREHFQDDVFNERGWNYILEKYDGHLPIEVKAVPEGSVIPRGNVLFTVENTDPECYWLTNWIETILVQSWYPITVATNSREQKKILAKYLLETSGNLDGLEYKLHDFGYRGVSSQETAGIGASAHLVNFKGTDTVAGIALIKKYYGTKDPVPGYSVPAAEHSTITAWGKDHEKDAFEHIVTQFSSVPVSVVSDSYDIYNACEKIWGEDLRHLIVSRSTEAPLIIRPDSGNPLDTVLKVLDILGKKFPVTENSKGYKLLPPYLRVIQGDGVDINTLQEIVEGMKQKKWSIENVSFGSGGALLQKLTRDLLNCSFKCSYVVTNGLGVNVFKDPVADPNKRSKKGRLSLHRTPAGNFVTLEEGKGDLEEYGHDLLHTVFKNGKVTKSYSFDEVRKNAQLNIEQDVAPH

Compound: O=c1c(-c2ccc(O)cc2)coc2cc(O)cc(O)c12 [Genistein, genistein]
survival [1, 7]: around 7%

Compound: O=C1C[C@@H](c2ccc(O)cc2)Oc2cc(O)cc(O)c21 [Naringerin, naringenin]
survival [1, 7]: 0%

Compound: Oc1ccc(C=Cc2cc(O)cc(O)c2)cc1 [Resv, resveratrol]
radioprotective effects compared with PT ([1]; orally once per day, 5 days before and 2 days after γ irradiation (7.2 Gy), FIG. 1C): lower than those of PT

Compound: Oc1cc(O)c2cc(O)c(-c3cc(O)c(O)c(O)c3)[o+]c2c1 [Delphinidin]
survival [1, 7]: around 12%

Compound: O=c1cc(-c2ccc(O)c(O)c2)oc2cc(O)cc(O)c12 [Luteolin, luteolin]
survival [1, 7]: 0%
percentage of survival reduced in ([1]; after 30 days, γ radiation (LD50/30), oral, FIG. 2B): about 40%

Compound: O=C(CCc1ccc(O)cc1)c1c(O)cc(O)cc1O[C@@H]1O[C@H](CO)[C@@H](O)[C@H](O)[C@H]1O [Phloridzin, phloridzin]
survival [1, 7]: 0%

NAMPT activity [3]: drastic decrease
Compound: O=C(/C=C/c1cccnc1)NCCCCC1CCN(C(=O)c2ccccc2)CC1 [FK866, reference compound]
NAD+ levels in mice treated with PT+SIL+NR or PT+SIL+NR+γ rays ([2]; FK866 15 mg/kg twice daily IP 6 days and 100 nM in cell cultures): decreased

Compound: COc1cc([C@@H]2Oc3cc(C4Oc5cc(O)cc(O)c5C(=O)[C@H]4O)ccc3O[C@H]2CO)ccc1O (stereo in doubt) [SIL, 3,5,7-trihydroxy-2-[3-(4-hydroxy-3-methoxyphenyl)-2-(hydroxymethyl)-2,3-dihydro-1,4-benzodioxin-6-yl]-2,3-dihydrochromen-4-one]
survival [1, 7]: around 10%
SIL levels in circulating blood, 30 min vs 120 min [4]: higher 30 min after

Compound: O=C(O[C@@H]1Cc2c(O)cc(O)cc2O[C@@H]1c1cc(O)c(O)c(O)c1)c1cc(O)c(O)c(O)c1 [EGCG, epigallocatechin gallate]
survival [1, 8]: around 100%
survival [1, 7]: 0%

Compound: O=c1c(O)c(-c2ccc(O)c(O)c2)oc2cc(O)cc(O)c12 [Quercetin, quercetin]
survival [1, 7]: 0%

Compound: FSL-1
survival [1, 9]: 5%
hematopoietic colony forming cells CFU-GEMM [5]: increases
hematopoietic colony forming cells CFU-GM [5]: increases

Compound: O=C(O)c1cc(O)c(O)c(O)c1 [Gallic acid, gallic acid]
survival [1, 8]: around 100%
survival [1, 7]: around 5%

Compound: NC(=O)c1ccc[n+]([C@@H]2O[C@H](CO)[C@@H](O)[C@H]2O)c1 [NR, 3-aminocarbonyl-1-b-D-ribofuranosyl-pyridinium]
survival [1, 9]: 0%
decrease of NAD+ induced by γ radiation ([2]; cells isolated 72 h after irradiation): prevents
NAD+ content in different cell types ([2]; cells isolated from treated mice): increases
DNA recovery (DNA damage COMET assay) [6]: favored DNA recovery

— patent publication US20250275940A1, “PTEROSTILBENE AND SILIBININ FOR PREVENTING, AMELIORATING OR REDUCING RADIATION-INDUCED DISEASES” (UNIVERSITAT DE VALÈNCIA, priority 2021, published 2025)
